Test results from the NIST ThermoML archive (doi:10.1021/je100125x).
Numbers after ± are expanded uncertainties.

What was measured:
[1] = Molar enthalpy of transition or fusion; details: Crystal; DSC
[2] = Crystal; DTA

Q: For `C[C@@H]1CC[C@H]2[C@@H](C)C(=O)O[C@@H]3O[C@@]4(C)CC[C@@H]1[C@]32OO4` [artemisinin], which “Molar enthalpy of transition or fusion” value [1] is on record?
A: The value was 24.3 ± 0.94 kJ/mol.

Q: What about the Triple point temperature [2] of the same compound?
A: Its Triple point temperature is 429.6 ± 1.1 K.
